Results published in US20230143604A1, “QW DOSING OF GIP RECEPTOR AGONIST PEPTIDE COMPOUNDS AND USES THEREOF” (TAKEDA PHARMACEUTICAL COMPANY LIMITED, priority 2020, published 2023).
Starred links: 1 amine or outer side, 2 acyl side, 3 side chain; linkers in the order of their positions; H or OH if unused. Non-standard residues stand in square brackets, D forms with d. Residues, ends and D or L forms follow the SMILES beside them. Groups on a side chain read outwards from the residue. *: point of attachment. C18 diacid = O=C(O)CCCCCCCCCCCCCCCCC(=O)*; C17 diacid = O=C(O)CCCCCCCCCCCCCCCC(=O)*; γGlu = O=C(O)[C@H](CCC(=O)[*:2])N[*:1]; NMeY = CN[C@@H](Cc1ccc(O)cc1)C(=O)O; AEEA = NCCOCCOCC(=O)O; Aib = CC(C)(N)C(=O)O

Experiment: Solubility in phosphate buffer pH 7.4
How it was run: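 3 mg of peptide treated with 100 μL portions of 200 mM phosphate buffer pH 7.4, sonicating/vortexing up to 1 min, with further buffer added until fully dissolved. Solubility then quantified by HPLC.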

| Structure (SMILES) | solubility (pH 7.4, aqueous buffer, pH 7.4 Phosphate Buffer - Solubility, 200 mM Phosphate buffer pH 7.4) [mg/mL] | solubility (pH 7.4, solubility in phosphate buffer at pH 7.4, 200 mM phosphate buffer pH 7.4) [mg/mL] | solubility (pH 7.4) [mg/mL] | solubility (pH 7.4, aqueous buffer) [mg/mL] |
| --- | --- | --- | --- | --- |
| CC[C@H](C)[C@H](NC(=O)[C@H](CO)NC(=O)[C@H](Cc1ccc(O)cc1)NC(=O)[C@H](CC(=O)O)NC(=O)[C@H](CO)NC(=O)[C@@H](NC(=O)[C@H](Cc1ccccc1)NC(=O)[C@@H](NC(=O)CNC(=O)[C@H](CCC(=O)O)NC(=O)C(C)(C)NC(=O)[C@H](Cc1ccc(O)cc1)NC)[C@@H](C)O)[C@@H](C)CC)C(=O)N[C@@H](C)C(=O)N[C@@H](CCCCNC(=O)CC[C@H](NC(=O)CC[C@H](NC(=O)CC[C@H](NC(=O)CCCCCCCCCCCCCCCC(=O)O)C(=O)O)C(=O)O)C(=O)O)C(=O)N[C@@H](CC(=O)O)C(=O)N[C@@H](CCCNC(=N)N)C(=O)NC(C)(C)C(=O)N[C@@H](C)C(=O)N[C@@H](CCC(N)=O)C(=O)NC(C)(C)C(=O)N[C@@H](CC(N)=O)C(=O)N[C@@H](Cc1ccccc1)C(=O)N[C@H](C(=O)N[C@@H](CC(N)=O)C(=O)N[C@@H](Cc1c[nH]c2ccccc12)C(=O)N[C@@H](CC(C)C)C(=O)N[C@@H](CC(C)C)C(=O)N[C@@H](C)C(=O)N[C@@H](CCC(N)=O)C(=O)N[C@@H](CO)C(=O)N1CCC[C@H]1C(=O)N[C@@H](CO)C(=O)N[C@@H](CO)C(=O)NCC(=O)N[C@@H](C)C(=O)N1CCC[C@H]1C(=O)N1CCC[C@H]1C(=O)N1CCC[C@H]1C(=O)N[C@@H](CO)C(N)=O)C(C)C [Compound 12] (H-[NMeY][Aib]EGTFISDYSIAK([γGlu-γGlu-γGlu-C17 diacid])DR[Aib]AQ[Aib]NFVNWLLAQSPSSGAPPPS-NH2) | ≥ 30 | ≥ 15 | – | – |
| CC[C@H](C)[C@H](NC(=O)[C@H](CCCCN)NC(=O)[C@H](CC(=O)O)NC(=O)[C@H](CC(C)C)NC(=O)[C@H](C)NC(=O)[C@@H](NC(=O)[C@H](CO)NC(=O)[C@H](Cc1ccc(O)cc1)NC(=O)[C@H](CC(=O)O)NC(=O)[C@H](CO)NC(=O)[C@@H](NC(=O)[C@H](Cc1ccccc1)NC(=O)[C@@H](NC(=O)CNC(=O)[C@H](CCC(=O)O)NC(=O)C(C)(C)NC(=O)[C@H](Cc1ccc(O)cc1)NC)[C@@H](C)O)[C@@H](C)CC)[C@@H](C)CC)C(=O)N[C@@H](C)C(=O)N[C@@H](CCC(N)=O)C(=O)NC(C)(C)C(=O)N[C@@H](CCCCNC(=O)COCCOCCNC(=O)COCCOCCNC(=O)CC[C@H](NC(=O)CC[C@H](NC(=O)CCCCCCCCCCCCCCCCC(=O)O)C(=O)O)C(=O)O)C(=O)N[C@@H](Cc1ccccc1)C(=O)N[C@H](C(=O)N[C@@H](CCC(=O)O)C(=O)N[C@@H](Cc1c[nH]c2ccccc12)C(=O)N[C@@H](CC(C)C)C(=O)N[C@@H](CC(C)C)C(=O)N[C@@H](C)C(=O)N[C@@H](CCC(N)=O)C(=O)N[C@@H](CCCNC(=N)N)C(=O)NCC(=O)O)C(C)C [Compound 173] (H-[NMeY][Aib]EGTFISDYSIALDKIAQ[Aib]K([AEEA-AEEA-γGlu-γGlu-C18 diacid])FVEWLLAQRG-OH) | – | – | ≥ 15 | ≥ 30 |
| CC[C@H](C)[C@H](NC(=O)[C@H](CO)NC(=O)[C@H](Cc1ccc(O)cc1)NC(=O)[C@H](CC(=O)O)NC(=O)[C@H](CO)NC(=O)[C@@H](NC(=O)[C@H](Cc1ccccc1)NC(=O)[C@@H](NC(=O)CNC(=O)[C@H](CCC(=O)O)NC(=O)C(C)(C)NC(=O)[C@H](Cc1ccc(O)cc1)NC)[C@@H](C)O)[C@@H](C)CC)C(=O)N[C@@H](C)C(=O)N[C@@H](CC(C)C)C(=O)N[C@@H](CC(=O)O)C(=O)N[C@@H](CCCNC(=N)N)C(=O)NC(C)(C)C(=O)N[C@@H](C)C(=O)N[C@@H](CCC(N)=O)C(=O)NC(C)(C)C(=O)N[C@@H](CCCCNC(=O)COCCOCCNC(=O)COCCOCCNC(=O)CC[C@H](NC(=O)CC[C@H](NC(=O)CCCCCCCCCCCCCCCCC(=O)O)C(=O)O)C(=O)O)C(=O)N[C@@H](Cc1ccccc1)C(=O)N[C@H](C(=O)N[C@@H](CC(N)=O)C(=O)N[C@@H](Cc1c[nH]c2ccccc12)C(=O)N[C@@H](CC(C)C)C(=O)N[C@@H](CC(C)C)C(=O)N[C@@H](C)C(=O)N[C@@H](CCC(N)=O)C(=O)N[C@@H](CCCNC(=N)N)C(=O)NCC(=O)NCC(=O)NCC(=O)NCC(=O)N[C@@H](CO)C(N)=O)C(C)C [Compound 21] (H-[NMeY][Aib]EGTFISDYSIALDR[Aib]AQ[Aib]K([AEEA-AEEA-γGlu-γGlu-C18 diacid])FVNWLLAQRGGGGS-NH2) | – | – | ≥ 15 | ≥ 30 |
